Test system: fibrinogen receptor
Assay: fibrinogen receptor binding test with ^3 H-BIBU 52 on human thrombocytes in plasma
Settings: in the presence of plasma, non-labelled BIBU 52 as competitor
Protocol: The fibrinogen receptor binding test according to the invention was carried out, for example, using (3S,5S)-5-[(4'-amidino-4-biphenylyl)-oxymethyl]-3-carboxymethyl-pyrrolidin-2-one-[3-^3 H-4-biphenylyl][=^3 H-BIBU 52 ZW] as ligand in the following manner:
A suspension of human thrombocytes in plasma is incubated with ^3 H-BIBU 52 and varying concentrations of the substance to be tested. The free and bound ligand is separated off by centrifuging and quantitatively determined by scintillation counting. The inhibition of the ^3 H-BIBU 52 binding by the test substance is determined from the measurements obtained.
In order, for example, to measure the competition of binding of ^3 H-BIBU 52 by non-labelled BIBU 52, blood is taken from an anticubital vein and anticoagulated with trisodium citrate (final concentration 13 mM). The blood is centrifuged for 10 minutes at 170 ×g and the supernatant platelet-rich plasma (PRP) is removed. The remaining blood is sharply centrifuged once more in order to obtain plasma. The PRP is diluted with autologous plasma 1:10. […] 100 μl thereof are measured in order to determine the free ligand. The pellet is dissolved in 500 μl of 0.2N NaOH, 450 μl are mixed with 25 μl of 5N HCl and measured. The residual plasma remaining in the pellet is determined from the ^14 C-content and the bound ligand is determined from the ^3 H-measurement. […]

binding of tritiated BIBU 52 to human thrombocytes (FIG. 1): supression of binding
Structure (SMILES): N=C(N)c1ccc(-c2ccc(OC[C@@H]3C[C@@H](CC(=O)O)C(=O)N3)cc2)cc1 [BIBU 52, (3S,5S)-5-[(4'-amidino-4-biphenylyl)-oxymethyl]-3-carboxymethyl-pyrrolidin-2-one]
